The values below come from patent publication US20240166652A1, “MODULATORS OF THE INTEGRATED STRESS PATHWAY” (Calico Life Sciences LLC, priority 2017, published 2024).

Some results are limits rather than exact numbers.

This assay deals with ATF4 luciferase reporter in HEK293T cells. The experiment in a line: ATF4-Luc assay (ATF4 luciferase reporter, tunicamycin-treated HEK293T cells). It is filed as cell-based, human. The conditions noted are these: Homo sapiens, HEK-293T; HEK293T cells carrying the ATF4 luciferase reporter, 1 μg/mL tunicamycin, 7 hours.
As for `O=C(COc1ccc(Cl)c(F)c1)NC12CCC(NC(=O)COc3ccc(F)c(Cl)c3)(CC1)[C@@H](O)C2` [Compound 596, 2-(4-chloro-3-fluorophenoxy)-N-{(3S)-4-[2-(3-chloro-4-fluorophenoxy)acetamido]-3-hydroxybicyclo[2.2.2]octan-1-yl}acetamide], the EC50 is less than 10 nM.

On to `COC(=O)c1cc(OCC(=O)NC23CCC(NC(=O)COc4ccc(Cl)c(F)c4)(CC2)[C@@H](O)C3)ccc1Cl` [Compound 597, methyl 2-chloro-5-[2-({(3S)-4-[2-(4-chloro-3-fluorophenoxy)acetamido]-3-hydroxybicyclo[2.2.2]octan-1-yl}amino)-2-oxoethoxy]benzoate], for which the EC50 fell in the range of 10 to 50 nM.

`O=C(COc1ccc(Cl)c(CO)c1)NC12CCC(NC(=O)COc3ccc(Cl)c(F)c3)(CC1)[C@@H](O)C2` [Compound 598, 2-(4-chloro-3-fluorophenoxy)-N-[(2S)-4-{2-[4-chloro-3-(hydroxymethyl)phenoxy]acetamido}-2-hydroxybicyclo[2.2.2]octan-1-yl]acetamide]: the EC50 is less than 10 nM.

As to `CN1C(=O)C2(NC(=O)COc3ccc(Cl)c(Cl)c3)CCC1(NC(=O)COc1ccc(Cl)c(Cl)c1)CC2` [Compound 599, N,N-(2-methyl-3-oxo-2-azabicyclo[2.2.2]octane-1,4-diyl)bis[2-(3,4-dicholorophenoxy)acetamide]], the EC50 was 10 to 50 nM.

As for `O=C(COc1ccc(Cl)c(Cl)c1)NC12CCC(NC(=O)COc3ccc(Cl)c(Cl)c3)(CC1)C(=O)N2` [Compound 600, N,N′-(3-oxo-2-azabicyclo[2.2.2]octane-1,4-diyl)bis[2-(3,4-dichlorophenoxy)acetamide]], the EC50 was less than 10 nM.

With `O=C(COc1ccc(Cl)c(F)c1)NC12CCC(NC(=O)COc3ccc(Cl)c(Cl)c3)(CC1)C(=O)N2` [Compound 601, 2-(4-chloro-3-fluorophenoxy)-N-{4-[2-(3,4-dichlorophenoxy)acetamido]-3-oxo-2-azabicyclo[2.2.2]octan-1-yl}acetamide], the EC50 is less than 10 nM.

For the molecule `O=C(COc1ccc(Cl)c(Cl)c1)NC12CCC(NC(=O)COc3ccc(Cl)c(F)c3)(CC1)C(=O)N2` [Compound 602, 2-(4-chloro-3-fluorophenoxy)-N-{1-[2-(3,4-dichlorophenoxy)acetamido]-3-oxo-2-azabicyclo[2.2.2]octan-4-yl}acetamide], the EC50 is less than 10 nM.

In the case of `O=C(COc1ccc(Cl)c(F)c1)NC12CCC(NC(=O)COc3ccc(Cl)c(F)c3)(CC1)C(=O)N2` [Compound 603, N,N′-(3-oxo-2-azabicyclo[2.2.2]octane-1,4-diyl)bis[2-(4-chloro-3-fluorophenoxy)acetamide]], the EC50 was less than 10 nM.

On to `O=C(COc1ccc2c(c1)OC(F)(F)O2)NC12CCC(NC(=O)COc3ccc(Cl)c(Cl)c3)(CC1)C(=O)N2` [Compound 604, 2-(3,4-dichlorophenoxy)-N-(1-{2-[(2,2-difluoro-2H-1,3-benzodioxol-5-yl)oxy]acetamido}-3-oxo-2-azabicyclo[2.2.2]octan-4-yl)acetamide], for which the EC50 was in the range of 10 to 50 nM.

For the molecule `CN1C(=O)C2(NC(=O)COc3ccc(Cl)c(F)c3)CCC1(NC(=O)COc1ccc(Cl)c(F)c1)CC2` [Compound 605, N,N′-(2-methyl-3-oxo-2-azabicyclo[2.2.2]octane-1,4-diyl)bis[2-(4-chloro-3-fluorophenoxy)acetamide]], the EC50 was in the range of 50 to 250 nM.

Take `O=C(Cc1ccc(Cl)cn1)NC12CCC(NC(=O)COc3ccc(Cl)c(F)c3)(CC1)[C@@H](O)C2` [Compound 606, 2-(4-chloro-3-fluorophenoxy)-N-{(2S)-4-[2-(5-chloropyridin-2-yl)acetamido]-2-hydroxybicyclo[2.2.2]octan-1-yl}acetamide]: the EC50 is 50 to 250 nM.

For `O=C(COc1cccnc1)NC12CCC(NC(=O)COc3ccc(Cl)c(F)c3)(CC1)[C@@H](O)C2` [Compound 607, 2-(4-chloro-3-fluorophenoxy)-N-[(2S)-2-hydroxy-4-{2-[(pyridin-3-yl)oxy]acetamido}bicyclo[2.2.2]octan-1-yl]acetamide], the EC50 was 50 to 250 nM.

Consider `O=C(Cc1ccc(Cl)c(F)c1)NC12CCC(NC(=O)COc3ccc(Cl)c(F)c3)(CC1)[C@@H](O)C2` [Compound 608, 2-(4-chloro-3-fluorophenoxy)-N-{(2S)-4-[2-(4-chloro-3-fluorophenyl)acetamido]-2-hydroxybicyclo[2.2.2]octan-1-yl}acetamide], for which the EC50 is 50 to 250 nM.

As for `O=C(COc1ccc(Cl)c(F)c1)NC12CC(NC(=O)CN(CCO)c3ccc(Cl)cc3)(C1)C2` [Compound 609, 2-(4-chloro-3-fluorophenoxy)-N-(3-{2-[(4-chlorophenyl)(2-hydroxyethyl)amino]acetamido}bicyclo[1.1.1]pentan-1-yl)acetamide], the EC50 was more than 2000 nM.

With `CCc1cc(COCC23CC(NC(=O)COc4ccc(Cl)c(F)c4)(C2)C3)on1` [Compound 610, 2-(4-chloro-3-fluorophenoxy)-N-(3-{[(3-ethyl-1,2-oxazol-5-yl)methoxy]methyl}bicyclo[1.1.1]pentan-1-yl)acetamide], the EC50 was more than 2000 nM.

Take `O=C(COc1ccc(Cl)c(F)c1)NC12CCC(OCCc3ccc(Cl)cc3)(CC1)CC2O` (stereo not drawn) [Compound 611, 2-(4-chloro-3-fluorophenoxy)-N-{4-[2-(4-chlorophenyl)ethoxy]-2-hydroxybicyclo[2.2.2]octan-1-yl}acetamide]: the EC50 is 10 to 50 nM.

For `O=C(COc1ccc(Cl)c(F)c1)NC12CC(COc3ccccc3)(C1)C2` [Compound 612, 2-(4-chloro-3-fluorophenoxy)-N-[3-(phenoxymethyl)bicyclo[1.1.1]pentan-1-yl]acetamide], the EC50 was more than 2000 nM.

Regarding `O=C(COc1ccc(Cl)c(F)c1)NC12CC(COc3ccc(C(F)F)cn3)(C1)C2` [Compound 613, 2-(4-chloro-3-fluorophenoxy)-N-[3-({[5-(difluoromethyl)pyridin-2-yl]oxy}methyl)bicyclo[1.1.1]pentan-1-yl]acetamide], the half-maximal effective concentration (EC50) was 500 to 2000 nM.

Take `O=C(COc1ccc(Cl)cc1)NC12CCC(NC(=O)COc3ccc(F)cc3)(CC1)[C@@H](O)C2` [Compound 614, 2-(4-chlorophenoxy)-N-{(3S)-4-[2-(4-fluorophenoxy)acetamido]-3-hydroxybicyclo[2.2.2]octan-1-yl}acetamide]: the EC50 was less than 10 nM.

For the molecule `O=C(COc1ccc(F)c(F)c1)NC12CCC(NC(=O)COc3ccc(F)c(F)c3)(CC1)[C@@H](O)C2` [Compound 615, N,N′-[(2S)-2-hydroxybicyclo[2.2.2]octane-1,4-diyl]bis[2-(3,4-difluorophenoxy)acetamide]], the EC50 was less than 10 nM.

Turning to `O=C(COc1ccc(F)cc1)NC12CCC(NC(=O)COc3ccc(Cl)cc3)(CC1)[C@@H](O)C2` [Compound 616, 2-(4-chlorophenoxy)-N-{(2S)-4-[2-(4-fluorophenoxy)acetamido]-2-hydroxybicyclo[2.2.2]octan-1-yl}acetamide], the EC50 was less than 10 nM.

In the case of `O=C(COc1ccc(F)cc1)NC12CCC(NC(=O)COc3ccc(F)c(F)c3)(CC1)[C@@H](O)C2` [Compound 617, 2-(3,4-difluorophenoxy)-N-{(2S)-4-[2-(4-fluorophenoxy)acetamido]-2-hydroxybicyclo[2.2.2]octan-1-yl}acetamide], the EC50 was less than 10 nM.

Consider `O=C(COc1ccc(Cl)cc1)NC12CCC(NC(=O)COc3ccc(F)c(F)c3)(CC1)[C@@H](O)C2` [Compound 618, 2-(4-chlorophenoxy)-N-{(3S)-4-[2-(3,4-difluorophenoxy)acetamido]-3-hydroxybicyclo[2.2.2]octan-1-yl}acetamide], for which the EC50 is less than 10 nM.

For the molecule `O=C(COc1ccc(F)cc1)NC12CCC(NC(=O)COc3ccc(Cl)c(F)c3)(CC1)[C@@H](O)C2` [Compound 619, 2-(4-chloro-3-fluorophenoxy)-N-{(2S)-4-[2-(4-fluorophenoxy)acetamido]-2-hydroxybicyclo[2.2.2]octan-1-yl}acetamide], the EC50 is less than 10 nM.

Regarding `COC(=O)c1ncc(OCC(=O)NC23CCC(NC(=O)COc4ccc(Cl)c(F)c4)(CC2)[C@@H](O)C3)cn1` [Compound 622, methyl 5-[2-({(3S)-4-[2-(4-chloro-3-fluorophenoxy)acetamido]-3-hydroxybicyclo[2.2.2]octan-1-yl}amino)-2-oxoethoxy]pyrimidine-2-carboxylate], the EC50 is 500 to 2000 nM.

On to `N#Cc1ncc(OCC(=O)NC23CCC(NC(=O)COc4ccc(Cl)c(F)c4)(CC2)[C@@H](O)C3)cn1` [Compound 623, 2-(4-chloro-3-fluorophenoxy)-N-[(2S)-4-{2-[(2-cyanopyrimidin-5-yl)oxy]acetamido}-2-hydroxybicyclo[2.2.2]octan-1-yl]acetamide], for which the EC50 is 10 to 50 nM.

Regarding `CCOc1ncc(OCC(=O)NC23CCC(NC(=O)COc4ccc(Cl)c(F)c4)(CC2)[C@@H](O)C3)cn1` [Compound 624, 2-(4-chloro-3-fluorophenoxy)-N-[(2S)-4-{2-[(2-ethoxypyrimidin-5-yl)oxy]acetamido}-2-hydroxybicyclo[2.2.2]octan-1-yl]acetamide], the EC50 was less than 10 nM.

In the case of `COc1ncc(OCC(=O)NC23CCC(NC(=O)COc4cnc(OC)nc4)(CC2)[C@@H](O)C3)cn1` [Compound 626, N,N′-[(2S)-2-hydroxybicyclo[2.2.2]octane-1,4-diyl]bis{2-[(2-methoxypyrimidin-5-yl)oxy]acetamide}], the EC50 was more than 2000 nM.

Turning to `O=C(COc1cnc(C(F)(F)F)nc1)NC12CCC(NC(=O)COc3ccc(Cl)c(F)c3)(CC1)[C@@H](O)C2` [Compound 627, 2-(4-chloro-3-fluorophenoxy)-N-[(2S)-2-hydroxy-4-(2-{[2-(trifluoromethyl)pyrimidin-5-yl]oxy}acetamido)bicyclo[2.2.2]octan-1-yl]acetamide], the EC50 is less than 10 nM.

As for `O=C(COc1cnc(OCC(F)(F)F)nc1)NC12CCC(NC(=O)COc3ccc(Cl)c(F)c3)(CC1)[C@@H](O)C2` [Compound 629, 2-(4-chloro-3-fluorophenoxy)-N-[(2S)-2-hydroxy-4-(2-{[2-(2,2,2-trifluoroethoxy)pyrimidin-5-yl]oxy}acetamido)bicyclo[2.2.2]octan-1-yl]acetamide], the EC50 lay in the range of 50 to 250 nM.
